± gives the expanded uncertainty stated by the source.
Conditions: 298.15 K; 101.33 kPa; Liquid; Vibrating tube method
Compound `CCCC(=O)O` [butanoic acid] has a mass density of 953.05 ± 0.21 kg/m3. `C[S+](C)[O-]` [dimethyl sulfoxide] showed a mass density of 1095.34 ± 0.21 kg/m3. Work on `CCCCCCC=O` [heptanal] yielded a mass density of 816.83 ± 3.2 kg/m3. Compound `CCCCCC=O` [hexanal] has a mass density of 830.01 ± 1 kg/m3. `CCCCCC(=O)O` [hexanoic acid] showed a mass density of 923.07 ± 0.21 kg/m3. `CCCCCCCC(=O)O` [octanoic acid] gave a mass density of 906 ± 0.32 kg/m3. `CCCCC(=O)O` [pentanoic acid] gave a mass density of 934.75 ± 0.21 kg/m3. For `CC(C)O` [propan-2-ol], the mass density was 780.69 ± 0.23 kg/m3.

Reference: the NIST ThermoML archive (doi:10.1016/j.jct.2018.10.030)
